# Data as given in article PMC11882969 (Nature Communications, 2025).
# Where “and” joins values, the source holds several entries; their conditions need not be identical. Equal values may be shown once.
# What was measured:
# CB1 (rCB1) = CB1 (rCB1) (Rattus norvegicus, UniProt P20272); test: Radioligand competition binding, [3H]-CP-55,940, rat brain membranes
# hCB1 = hCB1 (Homo sapiens, UniProt P21554); test: bioSensAll ebBRET signaling profiling, hCB1; assay type: cell-based; design: host or cells: HEK293SL cells, transient PEI transfection; settings: for Gi1 hCB1 response: Gi1 biosensor; for Gi1 hCB1 / GoB hCB1: single replicate values, FigS6a
# hCB1, sequence (P21554 whole entry): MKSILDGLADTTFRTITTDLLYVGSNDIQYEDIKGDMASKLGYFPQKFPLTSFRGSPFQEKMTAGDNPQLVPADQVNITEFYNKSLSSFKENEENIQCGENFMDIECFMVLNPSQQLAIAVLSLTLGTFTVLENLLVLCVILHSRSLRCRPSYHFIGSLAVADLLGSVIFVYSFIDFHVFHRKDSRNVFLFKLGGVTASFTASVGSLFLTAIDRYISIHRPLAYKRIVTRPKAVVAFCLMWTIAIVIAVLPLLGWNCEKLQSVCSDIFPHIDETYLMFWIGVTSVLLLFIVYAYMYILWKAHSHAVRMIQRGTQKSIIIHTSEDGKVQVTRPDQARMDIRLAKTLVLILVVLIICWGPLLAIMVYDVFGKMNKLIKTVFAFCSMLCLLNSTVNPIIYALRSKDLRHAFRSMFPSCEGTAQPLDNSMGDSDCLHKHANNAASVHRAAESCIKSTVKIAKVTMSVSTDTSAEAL
# CB1 (rCB1), sequence (P20272 whole entry): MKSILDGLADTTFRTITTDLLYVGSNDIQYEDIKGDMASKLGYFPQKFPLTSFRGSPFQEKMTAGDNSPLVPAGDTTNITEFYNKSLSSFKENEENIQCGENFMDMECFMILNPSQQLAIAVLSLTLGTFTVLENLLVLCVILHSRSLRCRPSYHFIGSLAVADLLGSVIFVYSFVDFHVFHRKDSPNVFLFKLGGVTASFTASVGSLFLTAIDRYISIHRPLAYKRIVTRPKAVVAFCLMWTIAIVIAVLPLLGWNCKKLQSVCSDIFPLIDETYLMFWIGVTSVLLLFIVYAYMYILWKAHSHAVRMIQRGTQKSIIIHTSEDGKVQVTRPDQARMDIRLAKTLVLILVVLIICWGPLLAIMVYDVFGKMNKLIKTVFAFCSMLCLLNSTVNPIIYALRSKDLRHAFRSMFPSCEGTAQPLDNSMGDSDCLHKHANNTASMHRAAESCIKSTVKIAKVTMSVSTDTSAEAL
compound,measurement,setting,value
COC(=O)C(NC(=O)c1cc(C)n(-c2cccc(C(F)(F)F)c2)n1)c1cccs1 (centres unmarked) [‘60154],improvement in affinity (free energy),"CB1 (rCB1); CF3 replacing F, ‘51486 vs ‘60154",-1.7 kcal/mol
same,LLE (lipophilic ligand efficiency),CB1 (rCB1); LLE = pIC50 − clogP,3.5
same,binding free energy ΔG,CB1 (rCB1); from measured Ki,10.0 kcal/mol
same,LE (ligand efficiency),CB1 (rCB1); from rCB1 affinity,0.36
same,pKi [95% CI],CB1 (rCB1); rCB1,7.4 [7.2 – 7.5]
same,Ki,"CB1 (rCB1); read-out: Ki [95% CI], rCB1, [3H]-CP-55,940",44 nM and 44.3 nM
same,fold improvement in CB1R affinity,CB1 (rCB1); vs parent hit or analog without the change,17 fold
same,Gi1 hCB1 response,hCB1; Log [Compound] (M) -4.22186,135.687
same,Gi1 hCB1 response,hCB1; Log [Compound] (M) -4.63927,128.615
same,Gi1 hCB1 response,hCB1; Log [Compound] (M) -5.05788,93.8563
same,Gi1 hCB1 response,hCB1; Log [Compound] (M) -5.47381,94.0353
same,Gi1 hCB1 response,hCB1; Log [Compound] (M) -5.89285,102.272
same,Gi1 hCB1 response,hCB1; Log [Compound] (M) -6.31878,90.7452
same,Gi1 hCB1 response,hCB1; Log [Compound] (M) -6.72585,85.0156
same,Gi1 hCB1 response,hCB1; Log [Compound] (M) -7.14267,90.8795
same,Gi1 hCB1 response,hCB1; Log [Compound] (M) -7.55284,57.4417
same,Gi1 hCB1 response,hCB1; Log [Compound] (M) -8,57.3074
same,Gi1 hCB1 response,hCB1; Log [Compound] (M) -8.22186,41.0808
same,Gi1 hCB1 response,hCB1; Log [Compound] (M) -8.39794,29.6663
same,Gi1 hCB1 response,hCB1; Log [Compound] (M) -8.68787,9.254
same,Gi1 hCB1 response,hCB1; Log [Compound] (M) -9.15521,-1.31
same,Gi1 hCB1 response,hCB1; Log [Compound] (M) -9.61989,-12.1646
same,Gi1 hCB1 response,hCB1; Log [Compound] (M) -10.0969,3.838
same,Gi1 hCB1 response,hCB1; Log [Compound] (M) -10.5529,8.852
same,Gi1 hCB1 response,hCB1; Log [Compound] (M) -11.0177,-14.1566
same,Gi1 hCB1 response,hCB1; Log [Compound] (M) -11.4949,-8.897
same,Gi1 hCB1 response,hCB1; Log [Compound] (M) -11.9208,6.613
same,Gi1 hCB1 response,hCB1; Log [Compound] (M) -12.3979,-8.651
same,Gi1 hCB1 response,hCB1; Log [Compound] (M) -12.8861,-7.89
same,Gi1 hCB1 response,"hCB1; Log [Compound] (M) -13, individual replicate values",-1.847 and -6.9945
same,Gi1 hCB1,hCB1; Log [Compound] (M) -4.22186,97.0901
same,GoB hCB1,hCB1; Log [Compound] (M) -4.22186,92.7297
same,Gi1 hCB1,hCB1; Log [Compound] (M) -4.63927,95.1785
same,GoB hCB1,hCB1; Log [Compound] (M) -4.63927,96.2724
same,Gi1 hCB1,hCB1; Log [Compound] (M) -5.05788,93.4672
same,GoB hCB1,hCB1; Log [Compound] (M) -5.05788,98.1786
same,Gi1 hCB1,hCB1; Log [Compound] (M) -5.47381,90.2143
same,GoB hCB1,hCB1; Log [Compound] (M) -5.47381,107.08
same,Gi1 hCB1,hCB1; Log [Compound] (M) -5.89285,87.9019
same,GoB hCB1,hCB1; Log [Compound] (M) -5.89285,95.1574
same,Gi1 hCB1,hCB1; Log [Compound] (M) -6.31878,75.1986
same,GoB hCB1,hCB1; Log [Compound] (M) -6.31878,99.5993
same,Gi1 hCB1,hCB1; Log [Compound] (M) -6.72585,72.9632
same,GoB hCB1,hCB1; Log [Compound] (M) -6.72585,94.8877
same,Gi1 hCB1,hCB1; Log [Compound] (M) -7.14267,69.0474
same,GoB hCB1,hCB1; Log [Compound] (M) -7.14267,78.6487
same,Gi1 hCB1,hCB1; Log [Compound] (M) -7.55284,54.4325
same,GoB hCB1,hCB1; Log [Compound] (M) -7.55284,63.3449
same,Gi1 hCB1,hCB1; Log [Compound] (M) -8,27.0835
same,GoB hCB1,hCB1; Log [Compound] (M) -8,30.6512
same,Gi1 hCB1,hCB1; Log [Compound] (M) -8.22186,23.9076
same,GoB hCB1,hCB1; Log [Compound] (M) -8.22186,16.822
same,Gi1 hCB1,hCB1; Log [Compound] (M) -8.39794,14.1027
same,GoB hCB1,hCB1; Log [Compound] (M) -8.39794,15.743
same,Gi1 hCB1,hCB1; Log [Compound] (M) -8.68787,6.5794
same,GoB hCB1,hCB1; Log [Compound] (M) -8.68787,4.5753
same,Gi1 hCB1,hCB1; Log [Compound] (M) -9.15521,2.17
same,GoB hCB1,hCB1; Log [Compound] (M) -9.15521,-0.7658
same,Gi1 hCB1,hCB1; Log [Compound] (M) -9.61989,0.08902
same,GoB hCB1,hCB1; Log [Compound] (M) -9.61989,0.7808
same,Gi1 hCB1,hCB1; Log [Compound] (M) -10.0969,-0.8206
same,GoB hCB1,hCB1; Log [Compound] (M) -10.0969,-0.1723
same,Gi1 hCB1,hCB1; Log [Compound] (M) -10.5529,0.8599
same,GoB hCB1,hCB1; Log [Compound] (M) -10.5529,-2.762
same,Gi1 hCB1,hCB1; Log [Compound] (M) -11.0177,1.677
same,GoB hCB1,hCB1; Log [Compound] (M) -11.0177,-1.018
same,Gi1 hCB1,hCB1; Log [Compound] (M) -11.4949,1.6461
same,GoB hCB1,hCB1; Log [Compound] (M) -11.4949,-1.935
